The values below come from US4933354A, “2-pyrrolidone-5-carboxylic acid compounds useful for the treatment of mental disorders” (Kissei Pharmaceutical Co., Ltd., priority 1987, dated 1990).

The test system of one data set is ECS-induced amnesic mice. Briefly: One trial passive avoidance task by step-through test (ECS-induced amnesia). Type of data set: in vivo, mice (male, dd-strain). The conditions noted are these: oral, 1 μmole/mouse, 1 hr before training trial; test 24 hr after training. Here is the method: Anti-amnesic effects of the compounds were determined by the following tests. Male mice of dd-strain, weighing 23-30 g, were employed for the experiment, and the test compounds were freshly dissolved in saline and administered orally at a dose of 1 μmole/mouse. (1) One trial passive avoidance task by step-through test A shuttle box composed of a light (7 cm high, 9 cm wide and 15 cm depth) and a dark (12 cm high, 13 cm wide and 15 cm depth) box; the former was lighted using […]-white light fluorescent bar lamp placed at the position of 40 cm from the floor and in the latter the stainless steel floor grids 2.5 mm in diameter were placed at intervals of 4 mm in order to give a foot shock. Both boxes were connected with a gate 3 cm in diameter. As the training trial, each animal was placed in the light box and a foot shock ([…]) was delivered through the floor grid immediately after the animal entered into the dark box, accordingly the animal learned a punishment for the entrance. […] Twenty-four hr after the training trial, the animal was placed again in the light box and step-through (ST) latency, time spent until the animal entered the dark box, was measured. […] The ST-latency on the test trial was measured up to 300 and 600 sec for control and amnesic group, respectively.
As to `O=C1CCC(C(=O)OCc2ccc(Cl)cc2)N1` (centres unmarked) [Compound 1, p-Chlorobenzyl 2-pyrrolidone-5-carboxylate], the “ST-latency in ECS-induced amnesic mice” value was “prolonged the ST-latency in ECS-induced amnesic mice significantly”.

Tested on in another data set: not listed separately
In words: Acute toxicity. The conditions noted are these: mouse, in vivo; male SCL-ICR mice, single shot, lethality at 1 week; route not given. As for the experimental part: The test compounds were administered to male mice of SCL-ICR-strain, 7 weeks age, at several dosage (single shot) and LD50, 50% lethal dose, was estimated from the number of lethal mice at 1 week past to the administration.
The compound `O=C1CCC(C(=O)OCc2ccc(Cl)cc2)N1` (centres unmarked) [Compound 1, p-Chlorobenzyl 2-pyrrolidone-5-carboxylate] gave a median lethal dose (LD50) at 168 h of over 2590 mg/kg.

`O=C1CCC(C(=O)OCc2ccccn2)N1` (centres unmarked) [Compound 2, 2-Pyridylmethyl 2-pyrrolidone-5-carboxylate] had an LD50 at 168 h of 1540 mg/kg.

`O=C1CCC(C(=O)OCc2cccnc2)N1` (centres unmarked) [Compound 3, 3-Pyridylmethyl 2-pyrrolidone-5-carboxylate] had an LD50 at 168 h of over 2590 mg/kg.

Compound `O=C1CCC(C(=O)OCc2ccncc2)N1` (centres unmarked) [Compound 4, 4-Pyridylmethyl 2-pyrrolidone-5-carboxylate] returned an LD50 at 168 h of over 2590 mg/kg.

Compound `O=C1CCC(C(=O)OCCc2ccccn2)N1` (centres unmarked) [Compound 5, 2-(2-Pyridyl)ethyl 2-pyrrolidone-5-carboxylate] displayed an LD50 at 168 h of over 2590 mg/kg.

As for `O=C1CCC(C(=O)OCCCc2ccccn2)N1` (centres unmarked) [Compound 6, 3-(2-Pyridyl)propyl 2-pyrrolidone-5-carboxylate], the LD50 at 168 h is under 1250 mg/kg.

`O=C1CCC(C(=O)NCc2ccccn2)N1` (centres unmarked) [Compound 7, N-(2-Pyridylmethyl)-2-pyrrolidone-5-carboxamide] registered an LD50 at 168 h of over 2590 mg/kg.

By LD50 is commonly meant the dose at which mortality reaches 50%. Lower therefore signals a more toxic substance.
